Data taken from patent US5156962A, “Process for producing carboxylic acid esters using carboxyesterase and an anhydride in organic solvent” (Takeda Chemical Industries, Ltd., priority 1986, dated 1992).

What was measured:
[1] = Solubility of the crystals in solvents; format: physicochemical
[2] = tested on: PEG-modified esterase (carboxyl esterase); assay: Acetylation of lankacidin C to lankacidin A by PEG-modified esterase with different acetyl group donors (Lineweaver-Burk analysis); format: biochemical, Streptomyces rochei var. volubilis; conditions: acetyl group donor as substrate, 11 mM lankacidin C in methyl isobutyl ketone, 37° C., least-squares method from Table 2; for Vmax: lankacidin A formed
Experimental: 2 ml of a solution of 11 mM concentrations of lankacidin C and 50 mM concentrations of acetic anhydride in methyl isobutyl ketone was put in a 20 ml test tube with stopper, to which was added 0.3 ml of a solution of PEG-modified esterase in 0.2M tris(hydroxymethyl) aminomethane-maleic acid buffer (pH 7.0), the concentration of PEG-modified esterase of which was 12 mg per ml, followed by shaking with shaking apparatus (80 spm) at 37° C.
By high-performance liquid chromatography (hereinafter referred to briefly as HPLC method) as described below, the amount of lankacidin A formed was measured at the time shown in Table 1.
By changing the concentration of acetyl group donor to those shown of Table 2, with the reaction time being 20 min., the same procedure as in Example 1 was conducted.
By using Lineweaver-Burk's equation of the formula 2 [Biochemical Dictionary, first edition, page 1314 (1984), Tokyokagakudozin Ltd.] derived by modifying the Michaelis-Menten equation of formula 1 [Op Cit. page 1239], the reaction using acetic anhydride as an acetyl group donor was compared with that using ethyl acetate as acetyl group donor. [formula]
By putting values of the concentration of acetyl group donor shown in Table 2 in the place of [S]o, and values of the amount of lankacidin A formed shown in Table 2 in the place of .nu., values of Km and Vmax were calculated by means of the least-squares method.

Solubility in acetone ([1]; acetone) | Solubility in chloroform ([1]; chloroform) | Solubility in ethanol ([1]; ethanol) | Solubility in methanol ([1]; methanol) | Solubility in water ([1]; water) | SMILES | Km ([2]; reaction time 20 min.) [mM] | Vmax [2] [mM/20 min.]
readily soluble | relatively soluble | readily soluble | readily soluble | hardly soluble | CCC(=O)OC1C=CC2OC2CC(C)OC(=O)CC(OC(=O)CC)C(OC)C(OC2OC(C)C(OC3CC(C)(O)C(OC(=O)CC)C(C)O3)C(N(C)C)C2O)C(CC=O)CC1C (centres unmarked) [9-propionyl maridomycin III] |  | 
 |  |  |  |  | CC(=O)OC(C)=O [Acetic anhydride, acetic anhydride] | 7.69 | 6.59
 |  |  |  |  | CCOC(C)=O [Ethyl acetate, ethyl acetate] |  | 5.40
